Laboratory results: PMC8546421, “Molecular modelling of the FOXO4-TP53 interaction to design senolytic peptides for the elimination of senescent cancer cells” (EBioMedicine, 2021)
Where no end group is shown, it is not given here.

Test system: senescent cells in the liver
Experiment: Systemic delivery to aged mice, liver SA-β-gal
Format: in vivo, mouse
Details: aged mice (82 weeks), 3 mg ES2 via tail vein weekly for three weeks, n=5, p=0.03
Method: Senescent and dividing cells or tissue sections were fixed with 4% formaldehyde. The cells were washed with PBS twice before staining with X-gal solution [1 mg/mL 5-bromo-4-chloro-3inolyl-β-D-galactoside (Boehringer Manneheim #745-740) in N,N-dimethylformamide, 5 mM potassium ferricyanide crystalline (#P-8131), 5 mM potassium […] (#P-3289), 2 mM magnesium chloride, and 1x PBS, pH 6.0. Cells or tissue sections were incubated at 37°C for 24 hours. After staining, cells were washed with PBS before being counted and imaged on the Leica Dmi8 microscope.
Mice were aged between 3-8 months and 20-30 g in weight and were housed in specific pathogen free cages. Animals were randomly distributed among treatment groups by assigning mice within the same cage to different treatment regimens. To minimise confounders, mouse treatment order was randomised within each cage. Male and female mice were distributed between all treatment groups since the chemicals used were directly injected and are not metabolized. Researchers were not blinded to the group allocation, but all attempts were made to analyse the data without knowing treatment conditions. […] Mice were then monitored daily and allowed to age until a humane endpoint was reached according to our IACUC protocol, which in this case was tumours of 2 cm in size. […]

## PRKGGRRRRAWGRRRRRRRRRRRRRRAPRKRLTLA [ES2]
  number of senescent cells in the liver (SA-β-gal activity): reduced the number of senescent cells in the liver by half
